From patent US7378387B2, “Method of suppressing immune response by reducing intracellular content of glutathione in macrophages and monocytes” (Ajinomoto Co., Inc., priority 1997, dated 2008)

Key:
[1] = system: spontaneous inflammatory bowel disease; assay: Spontaneous inflammatory bowel disease in γc knock out mice (Example 13); assay type: in vivo; details: −/Y mice, 20 μg/h twice a week, 5 times in total; for survival rate, Day 31 / survival rate, Day 45: non-administration 33%; for occurrence rate of intestinal inflammation, Day 14 / occurrence rate of intestinal inflammation, Day 31: non-administration 83%; for occurrence rate of intestinal inflammation, Day 45: non-administration 100%
From the text: In wild-type normal littermates of γc knock out mice (genetic phenotypes +/+, +/Y), no inflammatory bowel disease is observed at all under ordinary SPF breeding conditions. However, in γc knock out mice (genetic phenotypes, −/−, −/+ and −/Y), inflammatory bowel diseases occur very of ten. With respect to homo-knock out mice with −/− and −/Y phenotypes, approximately 70% thereof are spontaneously accompanied with inflammatory bowel diseases within 4 months. Also with respect to mice with +/− phenotype, approximately 60% thereof are spontaneously accompanied therewith within 6 months. That is, intestinal shortening, bloody stool, diarrhea, loose passage, anal prolapse and colonal hypertrophy are observed.
On the basis of the findings mentioned above, the effect of inhibiting spontaneous progression of inflammatory bowel disease in γc knock out mice was examined with respect to human Crohn disease and ulcerative colitis models. Saline, (NAC-OMe)2 or (NAC)2 (20 μg/h) was administered twice a week, 5 times in total, to each of 6 γc knock out male mice with […] and 6 γc knock out male mice with −/Y genotype which were inclined to have oxidative MΦ. It was examined whether or not the intestinal inflammation spontaneously progressed in −/Y was inhibited. In case of (NAC-OMe)2, on Day 14 of the administration, the occurrence rate of the non-administration −/Y group and the administration −/Y group was 83% to 25%; on Day 31, the occurrence rate was 83% to 25%, and the survival rate was 33% to 100%; and on Day 45, the occurrence rate was 100% to 25%, and the survival rate was 33% to 75%. In case of (NAC)2, it was 30, 40, 100, 40, 75% respectively.

[2] = system: insulin-non-dependent diabetes mellitus; assay: Blood sugar level in db/db mice (Example 26); assay type: in vivo; details: intraperitoneal, age 4 to 9 weeks, three times per week; at satiation; saline 100
From the text: db/db mice purchased from Nippon Clair, Co. were naturally mated together. Among the off spring mice, a colony of db/db mice with a high frequency of the spontaneous onset of insulin-non-dependent diabetes mellitus was established. Male db/db mice from the colony were used for the present experiment. Chemical agents were intraperitoneally administered to the db/db mice aged 4 to 9 weeks three times per week, in total 18 times; and based on the level of blood sugar in the mice at satiation, the effects of the chemical agents on the improvement of the diseased conditions of insulin-non-dependent diabetes mellitus were followed once per week. The doses were the same as in Example 24.

[3] = system: macrophage-like cells from tissues of rheumatoid arthritis patients; assay: Intracellular GSH by ACAS in macrophage-like cells from tissues of rheumatoid arthritis patients (Example 17); assay type: cell-based, human; details: 3 hours; for relative ratio of oxidative macrophages (reduced amount of intracellular glutathione) compared with saline-added group: added at 2 mM
Protocol: Synovial tissue was aseptically sampled from tissues resected during joint surgery. The sampled synovial tissue was rinsed in phosphate buffer, from which the surface was peeled off in a petri dish containing the same phosphate buffer. Then, the resulting synovial tissue was cut into pieces with a pair of scissors. To the pieces were added 2% hyaluronidase (manufactured by Sigma), 0.2% DNase (derived from bovine pancreas) and 5% collagenase, for enzymatic treatment at 37° C. for 2 hours. After discarding the resulting debris, a cell fraction recovered by centrifugation was adjusted to 5×10^5 cells/ml in a phenol red-free DMEM culture medium supplemented with 10% FCS (manufactured by Nikken Biology Co.). For 3 hours, the cells were allowed to adhere to the plastic surface. Plastic surface adherent macrophage-like cells harvested with a rubber policeman were then subjected to rinsing in combination with centrifugation three times using the culture medium under ice cooling. The resulting cells were designated as synovial tissue-derived macrophages and were then subjected to the following experiments.
By the same manner as in Example 3, macrophage-like cells were collected from tissues of rheumatoid arthritis patients, and were then suspended and adjusted in a phenol red-free RPMI 1640 culture medium supplemented with 10% fetal calf serum to 3×10^6 cells/ml. The suspension was divided in 100-μl portions on Lab-Tek Chamber Slide (#136439; manufactured by NUNC, CO.), for culturing in 5% CO2 at 37° C. for 3 hours; after discarding the nonadherent cells, the 200-μl serum-free culture medium further containing any of the following chemical agents was fed to the resulting culture, for reaction for 3 hours; and then, the resulting culture was rinsed three times, followed by addition of the serum-free culture medium of 200 μl and addition of monochlorobimane to a final concentration of 10 μM, for reaction for 30 minutes. The amount of intracellular GSH was assayed by imaging analysis with an ACAS system (manufactured by Meridian Co.).

[4] = system: IL-12; assay: IL-12 production by MΦ induced by intraperitoneal injection of substances (Example 7); assay type: in vivo, mouse
Protocol: The amount of IL-12 was determined through bioassay using cells of human T cell strain 2D6 (J. Leukocyte Biology, vol. 61, p. 346, 1997).
2D6 cells which had been incubated in an RPMI 1640 medium containing 500 pg/ml of recombinant human IL-12, 50 μM of 2-mercaptoethanol and 10% FCS (fetal calf serum) were moved to a tube, and centrifugally washed three times with the above-mentioned medium without IL-12 and cell density was adjusted to 1×10^5/ml. The cell suspension was added in an amount of 100 μl each to a 96-well flat bottom plate containing a sample serially diluted in advance with an RPMI 1640 medium containing 50 μM of 2-mercaptoethanol and 10% FCS in an amount of 100 μl each. Subsequently, the mixture was charged into a 5% […] incubator of 37° C., and incubated for 48 hours. For final 6 hours, ^3H-TdR was pulsed (a substance adjusted to 370 kBq/ml in an RPMI 1640 medium containing 50 μM of 2-mercaptoethanol and 10% FCS was added in an amount of 50 μl each). The cells a harvested, and the radioactivity was measured using a β counter (Matrix 96, supplied by Packard).
It was examined whether there is a difference in the IL-12 production between LNT-induced MΦ and LPS-induced MΦ. […] Next, the same analysis was conducted using MΦ induced by intraperitoneally injecting substances for changing the GSH content in cells.

[5] = system: IL-6; assay: IL-6 production of MΦ after NAC drinking and/or IL-2 administration (Example 8); assay type: in vivo, DBA/2 female mice; details: stimulated with LPS and IFNγ; control mice 1,240 pg/ml
Protocol: A stimulator was added to 1×10^6 MΦ, and the incubation was conducted at 37° C. for 2 days in a CO2 incubator. After centrifugation, the culture supernatant was collected.
The amount of IL-6 was determined using IL-6 dependent mouse hybridoma MH60 cells (J. Eur. Immunol., vol. 18, p. 951, 1988). One hundred microliters of the culture supernatant were added to 100 μl of the MH60 cell suspension adjusted to 1×10^5 cells/ml in a 10% FCS-containing RPMI medium, and the mixed solution was incubated at 37° C. for 2 days in a CO2 incubator. Subsequently, 10 μl of MTT (supplied by Sigma Co.) solution adjusted to a concentration of 5 mg/ml in the same medium were added thereto, and the reaction was conducted at 37° C. for 5 hours. […] Immediately after the dissolution, an absorbance of 570 nm was measured with an immunometer (supplied by Bio-Rad).
Two groups, namely, a group of 8-week-old DBA/2 female mice which were caused to freely drink city water as in Example 6, and a group of the same female mice which were caused to freely drink city water containing 1 mg/ml of NAC, were prepared. […] On day 14, the IL-12 production from MΦ was measured in the same manner as in Example 6.
Peritoneal cells were harvested from four groups of the mice, and stimulated with LPS and IFNγ. Then, the NO production, the IL-6 production and the IL-12 production were measured.

CC(=O)N[C@@H](CSSC[C@H](NC(C)=O)C(=O)O)C(=O)O [(NAC)2, N,N′-diacetylcystine]
survival rate, Day 31 [1]: 100% | survival rate, Day 45 [1]: 75% | occurrence rate of intestinal inflammation, Day 14 [1]: 30% | occurrence rate of intestinal inflammation, Day 31 [1]: 40% | occurrence rate of intestinal inflammation, Day 45 [1]: 40% | Relative ratio % of blood sugar level, 6 weeks [2]: 95% | Relative ratio % of blood sugar level, 7 weeks [2]: 100% | Relative ratio % of blood sugar level, 8 weeks [2]: 98%

COC(=O)[C@H](CSSC[C@H](NC(C)=O)C(=O)OC)NC(C)=O [(NAC-OMe)2, N,N′-diacetylcystine dimethyl ester]
survival rate, Day 31 [1]: 100% | survival rate, Day 45 [1]: 75% | occurrence rate of intestinal inflammation, Day 14 [1]: 25% | occurrence rate of intestinal inflammation, Day 31 [1]: 25% | occurrence rate of intestinal inflammation, Day 45 [1]: 25% | Relative ratio % of blood sugar level, 6 weeks [2]: 94% | Relative ratio % of blood sugar level, 7 weeks [2]: 92% | Relative ratio % of blood sugar level, 8 weeks [2]: 93% | induction of oxidative macrophage with the reduced amount of intracellular glutathione ([3]; added at 2 μM): confirmed

CCOC(=O)CNC(=O)[C@H](CS)NC(=O)CC[C@H](N)C(=O)O [GSH-OEt, glutathione monoethyl ester]
IL-12 production ([4]; MΦ induced by intraperitoneal injection of the substance, stimulation with LPS and IFNγ): 3,570 pg/ml | IL-12 production of substance-induced MΦ, without DEM or IL-4 ([4]; baseline values of the DEM and IL-4 experiments): 490 pg/mL | relative ratio of oxidative macrophages (reduced amount of intracellular glutathione) compared with saline-added group [3]: same action was also observed | relative ratio of oxidative macrophages (reduced amount of intracellular glutathione) compared with saline-added group ([3]; listed as glutathione ethyl ester): decreased

CC(=O)N[C@@H](CS)C(=O)O [NAC, N-acetylcysteine, reference compound]
amount of IL-6 in the macrophage culture supernatant [5]: 320 pg/mL
